Measured values as given in article PMC4468182, “Murine Efficacy and Pharmacokinetic Evaluation of the Flaviviral NS5 Capping Enzyme 2-Thioxothiazolidin-4-One Inhibitor BG-323” (PLoS ONE, 2015).
Where “and” joins values, the source holds several entries; their conditions need not be identical. Equal entries are not always repeated.

Tests used:
[1] = Metabolic stability assay in liver microsomes; conditions: 1 μM, human liver microsomes 0.5 mg/mL, NADPH
CYP P450 isoform 3A4 = CYP P450 isoform 3A4 (Homo sapiens, UniProt P08684); assay: CYP P450 binding assay, isoform 3A4; conditions: 10 μM, human liver microsomes, midazolam substrate, vs ketoconazole positive control
Sequence of CYP P450 isoform 3A4 (P08684 whole entry, canonical isoform): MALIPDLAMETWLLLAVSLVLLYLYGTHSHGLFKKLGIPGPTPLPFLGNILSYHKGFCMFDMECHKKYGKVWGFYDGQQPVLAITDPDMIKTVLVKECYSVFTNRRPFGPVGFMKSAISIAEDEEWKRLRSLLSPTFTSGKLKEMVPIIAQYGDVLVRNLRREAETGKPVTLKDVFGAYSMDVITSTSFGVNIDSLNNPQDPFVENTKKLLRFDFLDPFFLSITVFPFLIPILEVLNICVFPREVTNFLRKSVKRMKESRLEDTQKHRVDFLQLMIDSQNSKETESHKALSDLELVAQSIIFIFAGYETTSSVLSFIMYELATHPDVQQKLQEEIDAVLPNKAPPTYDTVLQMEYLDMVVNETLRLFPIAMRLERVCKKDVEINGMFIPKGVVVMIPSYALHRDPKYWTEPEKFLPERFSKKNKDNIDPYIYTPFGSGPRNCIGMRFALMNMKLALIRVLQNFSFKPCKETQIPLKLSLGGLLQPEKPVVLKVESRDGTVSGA

[2] = Plasma protein binding assay (Rapid Equilibrium Dialysis); assay type: in vitro ADME; conditions: human plasma, 5 μM, pH 7.4, 37°C, 4 hr
WNV (Kunjin subtype) = assay: BG-323 resistance study, six rounds of infection; assay type: cell-based, West Nile virus; conditions: 75 μM BG-323, BHK21 cells, 100 PFU Kunjin per round, six 3-day rounds
Experimental: On day one, BHK-21 cells (ATCC) were seeded in 12-well plates at 50,000 cells/mL and allowed to attach overnight. The following day, each of 9 wells was infected with 100 PFU WNV (Kunjin subtype) in complete DMEM (cDMEM) and 3 uninfected control wells received cDMEM only. Cells were incubated with media for 2 hr at 37°C to allow cells to become infected. After 2 hr, infected cDMEM was replaced with new media containing DMSO or 75 μM BG-323. Each condition was run in triplicate. Following DMSO or drug administration, cells were incubated at 37°C. On day 3, samples were collected and stored at -80°C. Viral titers were calculated by plaque assay as previously described on one tube of the day 3 samples for each replicate. 100 PFU from an unthawed day 3 sample was used to infect fresh BHK 21 cells to start the next round of infection. The three-day cycle was considered one round of infection and the study continued for 6 rounds. The infectious input of Kunjin virus and the concentrations (75 μM) of BG-323 were held constant throughout the study.

[3] = test system: Powassan virus (LB strain); assay type: cell-based
[4] = test system: West Nile virus (subtype Kunjin); design: method as in PMID 22674988; conditions: 75 μM, cell culture, previously tested; cited from earlier work
WNV NY99 = assay: In vivo antiviral efficacy in WNV NY99-challenged mice; design: species or system ICR mice; key to Clinical score, day 1 post-challenge / Clinical score, day 2 post-challenge / Clinical score, day 3 post-challenge / Clinical score, day 4 post-challenge / Clinical score, day 5 post-challenge / Clinical score, day 6 post-challenge / Clinical score, day 7 post-challenge / Clinical score, day 8 post-challenge / Clinical score, day 9 post-challenge / Clinical score, day 10 post-challenge / Clinical score, day 11 post-challenge / Clinical score, day 12 post-challenge / Clinical score, day 13 post-challenge / Clinical score, day 14 post-challenge: 0 is normal; 1 is questionable illness; 2 is distinct mild illness; 3 is distinct disease; 4 is serious disease/moribund
CYP P450 isoform 2C9 = CYP P450 isoform 2C9 (Homo sapiens, UniProt P11712); assay: CYP P450 binding assay, isoform 2C9; conditions: 10 μM, human liver microsomes, diclofenac substrate, vs sulfaphenazole positive control
Sequence of CYP P450 isoform 2C9 (P11712 whole entry, canonical isoform): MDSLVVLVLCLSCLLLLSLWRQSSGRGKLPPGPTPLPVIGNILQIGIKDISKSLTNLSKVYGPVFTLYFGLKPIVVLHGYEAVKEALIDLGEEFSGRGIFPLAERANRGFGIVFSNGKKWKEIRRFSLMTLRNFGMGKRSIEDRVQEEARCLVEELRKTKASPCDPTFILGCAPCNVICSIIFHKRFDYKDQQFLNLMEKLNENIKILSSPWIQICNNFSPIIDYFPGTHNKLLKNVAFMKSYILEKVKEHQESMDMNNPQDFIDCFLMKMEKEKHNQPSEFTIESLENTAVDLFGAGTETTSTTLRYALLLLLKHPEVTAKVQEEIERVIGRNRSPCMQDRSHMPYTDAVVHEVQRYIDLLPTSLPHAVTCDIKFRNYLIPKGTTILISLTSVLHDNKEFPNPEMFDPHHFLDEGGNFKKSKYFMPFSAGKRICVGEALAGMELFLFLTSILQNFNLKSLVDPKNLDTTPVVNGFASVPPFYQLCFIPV

Yellow fever viruses = conditions: cited from earlier work
Caco-2 cells = assay: Caco-2 cell permeability assay; conditions: 5 μM, Caco-2, pH 7.4, 120 min
[5] = In vivo toxicity assay (mouse weight); design: species or system ICR mice; conditions: 50 mg/kg IP
Experimental: Two groups of 3 mice each were either injected with 150 μL of 50 mg/kg BG-323 (synthesized by Brian McNaughton’s group at CSU [15]) formulated in 10% DMSO, 15% solutol and 75% saline or DMSO vehicle in the same formulation. Mice were weighed daily for 7 days and percent of maximum weight loss was calculated.

[6] = In vivo half-life (T1/2), serum LC/MS/MS
[7] = test system: West Nile virus (NY99 strain); assay: In vitro West Nile virus efficacy assay (plaque assay); assay type: cell-based
[8] = mice, 0.38 mL bolus of 5 mg/mL, serum

CC(C)(C)c1ccc(/C=C2/SC(=S)N(CCC(=O)O)C2=O)cc1 [BG-323, (E)-{3-[5-94-tert-butylbenzylidene0-4-oxo-2-thioxo-1,3-thiazolidin-3-yl]propanoic acid}]
T1/2 in human liver microsomes [1]: > 60 min | in vitro intrinsic clearance (CLint) [1]: < 0.023 mL/min/mg protein | percent of initial concentration remaining at 60 minutes ([1]; 60 min): 85% | percent inhibition of CYP 3A4 (CYP P450 isoform 3A4): insignificant compared to positive controls | percent bound to plasma proteins [2]: 99.9% | emergence of resistance (viral titers over time) (WNV (Kunjin subtype)): no significant increase in viral titers over time | reduction in viral titers compared to DMSO controls (Powassan) [3]: ~5 fold | reduction of Powassan virus titers [3]: approximately 5 logs | log reduction of titers, West Nile virus (subtype Kunjin) [4]: approximately 2 log | average viral titers in sera on day three (WNV NY99; 500 PFU WNV NY99 footpad, 50 mg/kg IP BID 5 days, day 3 post challenge): 1.6x10^5 PFU/mL | Clinical score, day 1 post-challenge (WNV NY99; individual WNV NY99-challenged mice, 50 mg/kg IP BID 5 days, day 1): 0 | Clinical score, day 2 post-challenge (WNV NY99; individual WNV NY99-challenged mice, 50 mg/kg IP BID 5 days, day 2): 0 | Clinical score, day 3 post-challenge (WNV NY99; individual WNV NY99-challenged mice, 50 mg/kg IP BID 5 days, day 3): 0 | Clinical score, day 4 post-challenge (WNV NY99; individual WNV NY99-challenged mice, 50 mg/kg IP BID 5 days, day 4): 0 | Clinical score, day 5 post-challenge (WNV NY99; individual WNV NY99-challenged mice, 50 mg/kg IP BID 5 days, day 5): 0 | Clinical score, day 6 post-challenge (WNV NY99; individual WNV NY99-challenged mice, 50 mg/kg IP BID 5 days, day 6): 1 | Clinical score, day 7 post-challenge (WNV NY99; individual WNV NY99-challenged mice, 50 mg/kg IP BID 5 days, day 7): 1 and 4 | Clinical score, day 8 post-challenge (WNV NY99; individual WNV NY99-challenged mice, 50 mg/kg IP BID 5 days, day 8): 1 and 4 | Clinical score, day 9 post-challenge (WNV NY99; individual WNV NY99-challenged mice, 50 mg/kg IP BID 5 days, day 9): 4 and 2 and 1 | Clinical score, day 10 post-challenge (WNV NY99; individual WNV NY99-challenged mice, 50 mg/kg IP BID 5 days, day 10): 4 and 1 | Clinical score, day 11 post-challenge (WNV NY99; individual WNV NY99-challenged mice, 50 mg/kg IP BID 5 days, day 11): 1 | Clinical score, day 12 post-challenge (WNV NY99; individual WNV NY99-challenged mice, 50 mg/kg IP BID 5 days, day 12): 0 | Clinical score, day 13 post-challenge (WNV NY99; individual WNV NY99-challenged mice, 50 mg/kg IP BID 5 days, day 13): 0 | Clinical score, day 14 post-challenge (WNV NY99; individual WNV NY99-challenged mice, 50 mg/kg IP BID 5 days, day 14): 0 | survival probability (Kaplan-Meier) versus control (WNV NY99; mouse, in vivo): approximately the same between the two groups | percent inhibition of CYP 2C9 (CYP P450 isoform 2C9): insignificant compared to positive controls | log reduction of titers, Yellow fever virus (Yellow fever viruses): ~1 log | Average Papp, A to B (Caco-2 cells; A to B): 49.4±1 x 10^−6 cm/s | Percent Recovery, A to B (Caco-2 cells; A to B): 43% | Average Papp, B to A (Caco-2 cells; B to A): 49.6±9.5 x 10^−6 cm/s | Percent Recovery, B to A (Caco-2 cells; B to A): 57% | gross toxicity in mice ([5]; 7 days): does not appear to be grossly toxic | average weight loss percentage (maximum weight loss) ([5]; mice, weights monitored 7 days): 3.5% | T1/2 in mice ([6]; 0.38 mL bolus of 5 mg/mL, serum): 105 min | Initial concentration (C0) [6, 8]: 19275 ng/mL | elimination rate constant (Kel) [6, 8]: 0.395 h⁻¹ | average serum concentration five min after administration ([6]; mice, 0.38 mL of 5 mg/mL, 5 min): ~21,000 ng/mL | reduction of West Nile virus titers [7]: approximately 5 logs | reduction in viral titers compared to DMSO controls (WNV) ([7]; 75 μM, BHK21 cells, 72 hours, Fig 1 legend): ~5 fold
